Source: US20150164895A1, “DETERMINING SENSITIVITY OF CELLS TO B-RAF INHIBITOR TREATMENT BY DETECTING KRAS MUTATION AND RTK EXPRESSION LEVELS” (GENENTECH, INC., priority 2009, published 2015)

Columns and labels:
B-RAFV600E cells = assay: Cellular proliferation of B-RAFV600E cells in presence of EGF, single agents and combinations; type: cell-based; settings: in combination with RAF inhibitor; 20 ng/ml EGF in the media
Experimental: (A) Cells were treated with […] compound in serum free media for 1 hour. For stimulation 20 ng/ml EGF was added for 5 min before cells were lysed. Lysates were transferred to an MSD plate where phospho- and total MEK levels were measured. […] Cells were dosed with indicated inhibitors, either alone or in combination in the presence of 20 ng/ml EGF in the media.

[1] = test system: pERK in BRAF V600E cells expressing EGFR; assay: pERK MSD assay, basal and EGF-stimulated; type: cell-based; settings: serum starved, -EGF or +EGF
Experimental: (A) Table of genotype and EGFR levels among lines tested. (B) Measurement of basal and stimulated pERK levels: cells were treated with […] compound in serum free media for 1 hour. For stimulation 20 ng/ml EGF was added for 5 min before cells were lysed. Lysates were transferred to an MSD plate where phospho- and total ERK levels were measured. (C) pERK IC50 data are plotted for the two Raf inhibitors (CHR-265, 1-methyl-5-[[2-[5-(trifluoromethyl)-1H-imidazol-2-yl]-4-pyridinyl]oxy]-N-[4-(trifluoromethyl)phenyl]-1H-Benzimidazol-2-amine and GDC-0879) under basal and EGF-stimulated conditions.
FIG. 29 summarizes certain RAF inhibitor (GDC-0879, PLX-4720 and “Raf inh a” which is 2,6-difluoro-N-(3-methoxy-1H-pyrazolo[3,4-b]pyridin-5-yl)-3-(propylsulfonamido)benzamide) potencies for blocking cellular pERK induction in response to EGF stimulation.

[2] = test system: HT-29 BRAF V600E human colorectal carcinoma xenografts; assay: HT-29 xenograft combination efficacy; type: in vivo, NCR nude (Taconic) mice; settings: RAF inh a and Tarceva given in combination
Experimental: (§1) In FIG. 34A, RAF inh a was given at 100 mg/kg with increasing doses of Tarceva. In FIG. 34B, Tarceva was given to all animals with increasing concentrations of RAF inh a. […] In FIG. 34C, lysates from tumors treated with the indicated doses of inhibitors in FIGS. 34A and B were analyzed for phospho-ERK (pERK) levels by western blot.

[3] = test system: phospho-ERK (pERK) levels in HT-29 tumors; assay: phospho-ERK western blot of HT-29 tumor lysates; type: in vivo; settings: RAF inhibitor a and Tarceva co-administered in mice
Experimental: as §1

[4] = test system: Venus-C-RAF / CFP-K-RAS in HEK293T cells; assay: C-RAF plasma membrane translocation, live cell confocal imaging; type: cell-based; design: dose or concentration left out as unconfirmed
Text: Aliquots of the membrane and cytosolic fractions were immunoblotted with the indicated antibodies. (B) HEK293T cells were transiently transfected with Venus-C-RAF (green), CFP-K-RAS (red) and mCherry-H2B (blue).

CX-1 cells = assay: Combination study of RAF inhibitor and Tarceva in colon tumor lines; type: cell-based; settings: Tarceva administered together with RAF inhibitor; CX-1 (high EGFR)
Text: FIGS. 32A-C depict combination studies of RAF inhibitor and EGFR inhibitor (Tarceva) in colon tumor lines with different levels of EGFR expression.
In FIG. 32C, the effects of combination treatment of CX-1 cells with either RAF inhibitor alone, Tarceva alone or combination of RAF inhibitor and Tarceva are shown. Neither RAF inhibitor alone nor Tarceva alone suppress proliferation as effectively as the combination. Both inhibitors show good synergy when administered together to CX-1 cells.

Compound | resistance of cellular proliferation to RAF inhibitors under EGF (B-RAFV600E cells) | blocking wildtype RAF signaling / selectivity (pERK induction in response to EGF) [1] | antitumor efficacy in combination [2] | phospho-ERK levels in the tumors [3] | other results
O=C(NOC[C@H](O)CO)c1ccc(F)c(F)c1Nc1ccc(I)cc1F [PD-0325901] | overcomes that resistance |  |  |  | 
CCCS(=O)(=O)Nc1ccc(F)c(C(=O)Nc2cnc3[nH]nc(OC)c3c2)c1F [Raf inh a, 2,6-difluoro-N-(3-methoxy-1H-pyrazolo[3,4-b]pyridin-5-yl)-3-(propylsulfonamido)benzamide] |  | BRAF V600E selective | Increased efficacy | synergized in decreasing phospho-ERK levels | 
Cc1ccc(NC(=O)c2cccc(C(C)(C)C#N)c2)cc1Nc1ccc2ncn(C)c(=O)c2c1 [AZ-628, 3-(2-cyanopropan-2-yl)-N-(4-methyl-3-(3-methyl-4-oxo-3,4-dihydroquinazolin-6-ylamino)phenyl)benzamide] |  |  |  |  | Venus-tagged C-RAF membrane translocation [4]: co-localizes with CFP-KRAS on the plasma membrane
CCCS(=O)(=O)Nc1ccc(F)c(C(=O)c2c[nH]c3ncc(Cl)cc23)c1F [PLX4720, N-[3-[(5-chloro-1H-pyrrolo[2,3-b]pyridin-3-yl)carbonyl]-2,4-difluorophenyl]-1-propanesulfonamide] |  | BRAF V600E selective |  |  | 
C#Cc1cccc(Nc2ncnc3cc(OCCOC)c(OCCOC)cc23)c1 [Tarceva, erlotinib] | overcomes that resistance |  | Increased efficacy | synergized in decreasing phospho-ERK levels | suppression of proliferation, combination effect (CX-1 cells): good synergy
